Measurements from ChEMBL document CHEMBL1201862, “PubChem BioAssay data set” (2004).
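Growth conditions: 96-well plates. Treatment: test compound, 48 hours, 5 concentrations. Analysis: linear interpolation between bracketing concentrations; unreached endpoints set to highest concentration. GI50 marks 50% less growth.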 Activity calls are given as the source filed them. Cut-off read from the data, not from the text of the source: active = GI50 up to about 1.1 µM and inactive = higher.

Key:
Test in all cases: DTP human tumour cell line panel, 48 h
SF-268 = test system: SF-268
SK-MEL-5 = test system: SK-MEL-5
HCC 2998 = test system: HCC 2998
CAKI-1 = test system: CAKI-1
UACC-257 = test system: UACC-257
M19-MEL = test system: M19-MEL
SF-539 = test system: SF-539
NCI-H226 = test system: NCI-H226
SNB-19 = test system: SNB-19
OVCAR-8 = test system: OVCAR-8
OVCAR-5 = test system: OVCAR-5
RXF 393 = test system: RXF 393
TK-10 = test system: TK-10
SNB-75 = test system: SNB-75
SK-OV-3 = test system: SK-OV-3
MCF7 = test system: MCF7
MDA-MB-435 = test system: MDA-MB-435
Hs-578T = test system: Hs-578T
T47D = test system: T47D
HL-60 = test system: HL-60

Compound	GI50 (SF-268)	GI50 (SK-MEL-5)	GI50 (HCC 2998)	GI50 (CAKI-1)	GI50 (UACC-257)	GI50 (M19-MEL)	GI50 (SF-539)	GI50 (NCI-H226)	GI50 (SNB-19)	GI50 (OVCAR-8)	GI50 (OVCAR-5)	GI50 (RXF 393)	GI50 (TK-10)	GI50 (SNB-75)	GI50 (SK-OV-3)	GI50 (MCF7)	GI50 (MDA-MB-435)	GI50 (Hs-578T)	GI50 (T47D)	GI50 (HL-60)
COC(=O)C(=O)C(C(=O)C(=O)Nc1ccccc1C(N)=O)c1nc2ccc(C(=O)c3ccccc3)cc2nc1O (stereo not drawn)	> 100 µM (inactive)	52.6 µM (inactive)	> 100 µM (inactive)	25.9 µM (inactive)	> 100 µM (inactive)	> 100 µM (inactive)	> 100 µM (inactive)	92.7 µM (inactive)	> 100 µM (inactive)	> 100 µM (inactive)	> 100 µM (inactive)	80.2 µM (inactive)	> 100 µM (inactive)							
O=C(O)[C@H](NS(=O)(=O)c1ccc([N+](=O)[O-])cc1)c1ccccc1	> 100 µM (inactive)	> 100 µM (inactive)	> 100 µM (inactive)	> 100 µM (inactive)	> 100 µM (inactive)	> 100 µM (inactive)	> 100 µM (inactive)	> 100 µM (inactive)	> 100 µM (inactive)	> 100 µM (inactive)	> 100 µM (inactive)	> 100 µM (inactive)	> 100 µM (inactive)	> 100 µM (inactive)	> 100 µM (inactive)					
COP(=O)(C(/C=C/c1ccccc1)OC(C)=O)[C@@H]1CCCC[C@H]1N(CC(C)(C)C)C(C)=O (stereo partly drawn)	16.6 µM (inactive)	14 µM (inactive)	12.6 µM (inactive)	28 µM (inactive)	14.3 µM (inactive)		17.9 µM (inactive)	12 µM (inactive)	29 µM (inactive)	16.8 µM (inactive)	19.2 µM (inactive)	7.29 µM (inactive)	20.2 µM (inactive)	3.94 µM (inactive)	23.1 µM (inactive)	22.5 µM (inactive)	14.5 µM (inactive)	12.8 µM (inactive)	5.87 µM (inactive)	14.6 µM (inactive)
COC1(C)CP(=O)(OC(C)C)CC(C)=C1Cl (stereo not drawn)	32.2 µM (inactive)	12.4 µM (inactive)	27 µM (inactive)	17 µM (inactive)	16.9 µM (inactive)		10.7 µM (inactive)	12.5 µM (inactive)	28.4 µM (inactive)	16.1 µM (inactive)	18.8 µM (inactive)	21.4 µM (inactive)	15.9 µM (inactive)	46.9 µM (inactive)	49.2 µM (inactive)	4.67 µM (inactive)	13.6 µM (inactive)	9.84 µM (inactive)	13.6 µM (inactive)	10.9 µM (inactive)
COC(=O)C(C(=O)C(=O)Nc1ccc(C)cc1C)c1csc(-n2nc(-c3ccccc3)cc2-c2ccccc2)n1 (stereo not drawn)	86.7 µM (inactive)		> 100 µM (inactive)	> 100 µM (inactive)	> 100 µM (inactive)	> 100 µM (inactive)		80.2 µM (inactive)	> 100 µM (inactive)	> 100 µM (inactive)	49.9 µM (inactive)	92 µM (inactive)	> 100 µM (inactive)	6.37 µM (inactive)	> 100 µM (inactive)					> 100 µM (inactive)
COc1cc(C(Cc2ccccc2)NC(C)=O)oc(=O)c1 (stereo not drawn)	89.1 µM (inactive)	> 100 µM (inactive)	> 100 µM (inactive)	> 100 µM (inactive)	> 100 µM (inactive)	> 100 µM (inactive)		> 100 µM (inactive)	> 100 µM (inactive)	> 100 µM (inactive)	> 100 µM (inactive)	> 100 µM (inactive)	4.14 µM (inactive)	25 µM (inactive)	> 100 µM (inactive)					> 100 µM (inactive)
COc1cc2c(cc1O)CCN[C@@]21CS[C@H]2c3c(OC(C)=O)c(C)c4c(c3C(COC1=O)N1C2C2NC(Cc3cc(C)c(OC)c(O)c32)[C@@H]1C#N)OCO4 (stereo partly drawn)	< 0.01 µM (active)	< 0.01 µM (active)	< 0.01 µM (active)			< 0.01 µM (active)	< 0.01 µM (active)	< 0.01 µM (active)	< 0.01 µM (active)			< 0.01 µM (active)	< 0.01 µM (active)	< 0.01 µM (active)						< 0.01 µM (active)
CC(C)N(C(=O)C12C3C4C5C3C1(C(=O)N(C(C)C)C(C)C)C5(C#N)C42)C(C)C (stereo not drawn)	> 100 µM (inactive)	> 100 µM (inactive)	> 100 µM (inactive)	> 100 µM (inactive)	> 100 µM (inactive)	> 100 µM (inactive)	> 100 µM (inactive)	> 100 µM (inactive)	> 100 µM (inactive)	> 100 µM (inactive)	> 100 µM (inactive)		> 100 µM (inactive)	> 100 µM (inactive)	> 100 µM (inactive)					21.1 µM (inactive)
O=C1C(c2ccc([N+](=O)[O-])cc2)=[N+]([O-])c2ccc([N+](=O)[O-])cc21	40.8 µM (inactive)	30.8 µM (inactive)				27.6 µM (inactive)	52.1 µM (inactive)	37.2 µM (inactive)	98.6 µM (inactive)	29.3 µM (inactive)	> 100 µM (inactive)	56.4 µM (inactive)	77.8 µM (inactive)	62.1 µM (inactive)	36.4 µM (inactive)					19.5 µM (inactive)
CC(C)(C)OC(=O)NC1CCCC1=O (stereo not drawn)	> 100 µM (inactive)	> 100 µM (inactive)	> 100 µM (inactive)	> 100 µM (inactive)	> 100 µM (inactive)	> 100 µM (inactive)	> 100 µM (inactive)	> 100 µM (inactive)	> 100 µM (inactive)	> 100 µM (inactive)	> 100 µM (inactive)	> 100 µM (inactive)	> 100 µM (inactive)	40.9 µM (inactive)	> 100 µM (inactive)					
C=C1CCC2C(C)(CO)C(O)CCC2(C)C1CC(O)C1=CCOC1=O (stereo not drawn)	> 100 µM (inactive)	77.1 µM (inactive)	17.7 µM (inactive)	78 µM (inactive)	> 100 µM (inactive)	45.5 µM (inactive)	24.3 µM (inactive)	45.2 µM (inactive)	> 100 µM (inactive)	36.1 µM (inactive)	> 100 µM (inactive)		> 100 µM (inactive)	46.9 µM (inactive)	51.5 µM (inactive)					26.9 µM (inactive)
O=C1COc2cc3c(cc2N1)SCC(=O)N3	> 100 µM (inactive)	> 100 µM (inactive)	> 100 µM (inactive)	> 100 µM (inactive)	> 100 µM (inactive)	> 100 µM (inactive)	> 100 µM (inactive)	> 100 µM (inactive)	> 100 µM (inactive)	> 100 µM (inactive)			> 100 µM (inactive)	> 100 µM (inactive)	> 100 µM (inactive)					> 100 µM (inactive)
COc1ccc(C2C(C(=O)O)=C(COC(C)=O)Oc3cc4c(cc32)OCO4)c(OC)c1 (stereo not drawn)		> 100 µM (inactive)		> 100 µM (inactive)	> 100 µM (inactive)	> 100 µM (inactive)	> 100 µM (inactive)		> 100 µM (inactive)	> 100 µM (inactive)		> 100 µM (inactive)	> 100 µM (inactive)	> 100 µM (inactive)	> 100 µM (inactive)					> 100 µM (inactive)
Nc1ccc(C(=O)CC2(O)C(=O)Nc3c(Cl)cc(Cl)cc32)cc1 (stereo not drawn)	> 100 µM (inactive)		> 100 µM (inactive)		75.5 µM (inactive)	47 µM (inactive)	> 100 µM (inactive)	> 100 µM (inactive)	> 100 µM (inactive)	> 100 µM (inactive)	> 100 µM (inactive)	> 100 µM (inactive)	> 100 µM (inactive)	58.1 µM (inactive)	> 100 µM (inactive)					24.9 µM (inactive)
Cc1ccc(S(=O)(=O)n2cncc2CO)cc1	> 100 µM (inactive)	> 100 µM (inactive)	> 100 µM (inactive)	> 100 µM (inactive)	> 100 µM (inactive)		> 100 µM (inactive)	> 100 µM (inactive)	> 100 µM (inactive)	> 100 µM (inactive)	> 100 µM (inactive)	> 100 µM (inactive)	> 100 µM (inactive)	> 100 µM (inactive)	> 100 µM (inactive)	> 100 µM (inactive)	> 100 µM (inactive)	> 100 µM (inactive)	> 100 µM (inactive)	> 100 µM (inactive)
COc1cccc2c1c1ccc3c(c1n2C)C(=O)C=CC3=O	17.8 µM (inactive)	37.8 µM (inactive)	48.4 µM (inactive)	3.15 µM (inactive)	14.9 µM (inactive)	1.24 µM (inactive)	16.6 µM (inactive)	64.3 µM (inactive)	> 100 µM (inactive)	15.3 µM (inactive)	41.9 µM (inactive)		18.9 µM (inactive)	0.695 µM (active)	> 100 µM (inactive)					1.51 µM (inactive)
C/N=C(\N)c1ccc(NC(=N)c2ccc(C(=N)Nc3ccc(/C(N)=N/C)cc3)cc2)cc1	> 100 µM (inactive)	> 100 µM (inactive)		> 100 µM (inactive)	> 100 µM (inactive)	> 100 µM (inactive)	> 100 µM (inactive)	> 100 µM (inactive)	> 100 µM (inactive)	> 100 µM (inactive)	> 100 µM (inactive)	> 100 µM (inactive)	> 100 µM (inactive)	> 100 µM (inactive)	> 100 µM (inactive)					> 100 µM (inactive)
COc1ccc([Se][Se]c2ccc(OC)cc2OC)c(OC)c1	2.19 µM (inactive)	7.85 µM (inactive)	6.07 µM (inactive)	3.54 µM (inactive)	2.45 µM (inactive)	2.03 µM (inactive)	1.75 µM (inactive)	2.9 µM (inactive)	3.64 µM (inactive)	4.75 µM (inactive)		2.13 µM (inactive)	4.06 µM (inactive)	1.59 µM (inactive)	32.4 µM (inactive)					2.43 µM (inactive)
